Measurements published in ChEMBL document CHEMBL6121036, “Evaluation of Cereblon-Directing Warheads for the Development of Orally Bioavailable PROTACs” (J Med Chem, 2025).
Values after ≈ are worked out from the molar mass of the structure shown. Active and inactive are the calls of the source. The rule behind the calls is not given here.

What was measured:
[1] = molecular target: T1, Protein cereblon/Bromodomain-containing protein 4 (Homo sapiens, UniProt O60885+Q96SW2); test: PROTAC activity at CRBN/Hibit-tagged BRD4 (unknown origin) expressed in HEK293 cells co-expressing LgBiT assessed as degradation of BRD4 incubated for 24 hrs by […] glo-max assay; assay type: cell-based
[2] = molecular target: T1, Protein cereblon/Bromodomain-containing protein 4; test: PROTAC activity at CRBN/Hibit-tagged BRD4 (unknown origin) expressed in HEK293 cells co-expressing LgBiT assessed as degradation of BRD4 incubated for 24 hrs by […] glo-max assay relative to control; assay type: cell-based
[3] = molecular target: T1, Protein cereblon/Bromodomain-containing protein 4; test: PROTAC activity at CRBN/Hibit-tagged BRD4 (unknown origin) expressed in HEK293 cells co-expressing LgBiT assessed as degradation rate incubated for 24 hrs by […] glo-max assay; assay type: cell-based
MV4-11 = test: Cytotoxicity against human MV4-11 cells assessed as reduction in cell viability incubated for 72 hrs by cell-titer glo assay; assay type: functional, cell-based; details: MV4-11, 72 h
HD-MB03 = test: Cytotoxicity against human HD-MB03 cells assessed as reduction in cell viability incubated for 72 hrs by cell-titer glo assay; assay type: functional, cell-based; details: HD-MB03, 72 h
[4] = Kinetic aqueous solubility of the compound at pH 7.4; assay type: physicochemical; details: read-out: Kinetic_solubility
[5] = Metabolic stability in mouse liver microsomes assessed as half life; assay type: ADME, Microsome; details: liver microsomes
[6] = molecular target: T2, Protein cereblon/Bromodomain-containing protein 4/DNA damage-binding protein 1 (Homo sapiens) (UniProt O60885+Q96SW2+Q16531); test: Binding affinity to his-tagged CRBN/DDB1/GST-tagged BRD4 (49 to 170 residues)(unknown origin) assessed as ternary complex formation (AUC) incubated for 1 hr by luminescence based Alphascreen assay; assay type: protein assay
HEK293 = test: Cytotoxicity against HEK293 cells expressing LgBiT fused HiBiT-BRD2 measured after 24 hrs by cell titer-glo assay; assay type: toxicity, cell-based; details: human, hek293, 24 h
[7] = molecular target: T2, Protein cereblon/Bromodomain-containing protein 4/DNA damage-binding protein 1 (Homo sapiens); test: Binding affinity to his-tagged CRBN/DDB1/GST-tagged BRD4 (49 to 170 residues)(unknown origin) assessed as ternary complex formation by measuring AUC incubated for 1 hr by luminescence based Alphascreen assay; assay type: protein assay
[8] = molecular target: T3, Protein cereblon/Bromodomain-containing protein 2 (Homo sapiens) (UniProt P25440+Q96SW2); test: PROTAC activity at CRBN/Hibit-tagged CRISPR BRD2 (unknown origin) expressed in HEK293 cells coexpressing LgBiT assessed as degradation of BRD2 by […] glo-max assay; assay type: cell-based
[9] = molecular target: T4, Protein cereblon/Bromodomain-containing protein 3 (Homo sapiens) (UniProt Q15059+Q96SW2); test: PROTAC activity at CRBN/Hibit-tagged CRISPR BRD3 (unknown origin) expressed in HEK293 cells co-expressing LgBiT assessed as degradation of BRD3 by […] glo-max assay; assay type: cell-based
[10] = molecular target: T1, Protein cereblon/Bromodomain-containing protein 4; test: PROTAC activity at CRBN/Hibit-tagged CRISPR BRD4 (unknown origin) expressed in HEK293 cells co-expressing LgBiT assessed as degradation of BRD4 by […] glo-max assay; assay type: cell-based
[11] = molecular target: T3, Protein cereblon/Bromodomain-containing protein 2 (Homo sapiens); test: PROTAC activity at CRBN/Hibit-tagged CRISPR BRD2 (unknown origin) expressed in HEK293 cells coexpressing LgBiT assessed as degradation of BRD2 by […] glo-max assay relative to control; assay type: cell-based
[12] = molecular target: T4, Protein cereblon/Bromodomain-containing protein 3 (Homo sapiens); test: PROTAC activity at CRBN/Hibit-tagged CRISPR BRD3 (unknown origin) expressed in HEK293 cells co-expressing LgBiT assessed as degradation of BRD3 by […] glo-max assay relative to control; assay type: cell-based
[13] = molecular target: T1, Protein cereblon/Bromodomain-containing protein 4; test: PROTAC activity at CRBN/Hibit-tagged CRISPR BRD4 (unknown origin) expressed in HEK293 cells co-expressing LgBiT assessed as degradation of BRD4 by […] glo-max assay relative to control; assay type: cell-based
[14] = molecular target: T3, Protein cereblon/Bromodomain-containing protein 2 (Homo sapiens); test: PROTAC activity at CRBN/Hibit-tagged CRISPR BRD2 (unknown origin) expressed in HEK293 cells coexpressing LgBiT assessed as degradation of BRD2 measured after 10 to 14 hrs by […] glo-max assay; assay type: cell-based; details: time 10-14 hrs
[15] = molecular target: T4, Protein cereblon/Bromodomain-containing protein 3 (Homo sapiens); test: PROTAC activity at CRBN/Hibit-tagged CRISPR BRD3 (unknown origin) expressed in HEK293 cells co-expressing LgBiT assessed as degradation of BRD3 measured after 13 to 16 hrs by […] glo-max assay; assay type: cell-based; details: time 13-16 hrs
[16] = molecular target: T1, Protein cereblon/Bromodomain-containing protein 4; test: PROTAC activity at CRBN/Hibit-tagged CRISPR BRD4 (unknown origin) expressed in HEK293 cells co-expressing LgBiT assessed as degradation of BRD4 measured after 18 to 24 hrs by […] glo-max assay; assay type: cell-based; details: time 18-24 hrs
[17] = molecular target: Protein cereblon (Homo sapiens) (UniProt Q96SW2); test: Binding affinity to CRBN (unknown origin)
[18] = Effect on BRD3 level in human MV4-11 cells assessed as fold change at 100 nM measured after 4 hrs; assay type: functional
[19] = Effect on BRD4 level in human MV4-11 cells assessed as fold change at 100 nM measured after 4 hrs; assay type: functional
[20] = Effect on BRD2 level in human MV4-11 cells assessed as fold change at 100 nM measured after 4 hrs; assay type: functional
[21] = Effect on MYC level in human MV4-11 cells assessed as fold change at 100 nM measured after 4 hrs; assay type: functional
[22] = Effect on FYTTD1 level in human MV4-11 cells assessed as fold change at 100 nM measured after 4 hrs; assay type: functional
[23] = Effect on CCNF level in human MV4-11 cells assessed as fold change at 100 nM measured after 4 hrs; assay type: functional
[24] = Effect on CDC42EP3 level in human MV4-11 cells assessed as fold change at 100 nM measured after 4 hrs; assay type: functional
[25] = Effect on MCL1 level in human MV4-11 cells assessed as fold change at 100 nM measured after 4 hrs; assay type: functional
[26] = Effect on PLAU level in human MV4-11 cells assessed as fold change at 100 nM measured after 4 hrs; assay type: functional
[27] = Effect on ZFP36L2 level in human MV4-11 cells assessed as fold change at 100 nM measured after 4 hrs; assay type: functional
[28] = Effect on FGL2 level in human MV4-11 cells assessed as fold change at 100 nM measured after 4 hrs; assay type: functional
[29] = Effect on NSA2 level in human MV4-11 cells assessed as fold change at 100 nM measured after 4 hrs; assay type: functional
[30] = Effect on CCND3 level in human MV4-11 cells assessed as fold change at 100 nM measured after 4 hrs; assay type: functional
[31] = Effect on AURKA level in human MV4-11 cells assessed as fold change at 100 nM measured after 4 hrs; assay type: functional
[32] = Effect on NOP53 level in human MV4-11 cells assessed as fold change at 100 nM measured after 4 hrs; assay type: functional
[33] = Effect on PLK1 level in human MV4-11 cells assessed as fold change at 100 nM measured after 4 hrs; assay type: functional
[34] = Effect on RNF166 level in human MV4-11 cells assessed as fold change at 100 nM measured after 4 hrs; assay type: functional
[35] = Effect on ZBTB21 level in human MV4-11 cells assessed as fold change at 100 nM measured after 4 hrs; assay type: functional
[36] = Effect on TP53 level in human MV4-11 cells assessed as fold change at 100 nM measured after 4 hrs; assay type: functional
[37] = Permeability in MDCK-II cells incubated for 1 hr by UPLC/MS/UV analysis; assay type: ADME, cell-based, Canis lupus familiaris; details: dog, read-out: permeability
[38] = Stability in mouse plasma assessed as half life by UPLC-MS/MS analysis; assay type: ADME, cell-free

Cc1sc2c(c1C)C(c1ccc(Cl)cc1)=N[C@@H](CC(=O)NCCc1ccc(C3CCC(=O)NC3=O)cc1)c1nnc(C)n1-2 (stereo not given in full)
DC50 [1]: 0.19 nM
Emax [2]: 98%
Activity [3]: 0.733 fRLU/hr
IC50 (MV4-11): 0.18 nM
IC50 (HD-MB03): 2.23 nM
solubility kinetic [4]: 71.4 µM (≈ 43.9 µg/mL)
half-life [5]: 16.2 min
Activity [6]: Active
Activity (HEK293): Non-toxic
AUC [7]: 292000

Cc1sc2c(c1C)C(c1ccc(Cl)cc1)=N[C@@H](CC(=O)N1CCC(CN3CCN(c4ccc5c(c4)CN(C4CCC(=O)NC4=O)C5=O)CC3)CC1)c1nnc(C)n1-2 (stereo not given in full)
DC50 [1]: 0.58 nM
Emax [2]: 96.6%
Activity [3]: 0.201 fRLU/hr
IC50 (MV4-11): 0.14 nM
IC50 (HD-MB03): 1.56 nM
solubility kinetic [4]: 48.4 µM (≈ 39.1 µg/mL)
half-life [5]: 45 min
Activity [6]: Active
Activity (HEK293): Non-toxic
Activity [8]: Active
Activity [9]: Active
Activity [10]: Active
Activity [11]: > 95%
Activity [12]: > 95%
Activity [13]: > 90%
Activity [14]: Active
Activity [15]: Active
Activity [16]: Active
Activity [17]: Active
fold change (FC) [18]: -3.9
fold change (FC) [19]: -3.57
fold change (FC) [20]: -2.91
fold change (FC) [21]: -1.72
fold change (FC) [22]: -1.54
fold change (FC) [23]: -1.47
fold change (FC) [24]: -1.25
fold change (FC) [25]: -1.06
fold change (FC) [26]: -1.05
fold change (FC) [27]: -1
fold change (FC) [28]: -1.05
fold change (FC) [29]: -1.06
fold change (FC) [30]: -0.97
fold change (FC) [31]: -0.9
fold change (FC) [32]: -0.82
fold change (FC) [33]: -0.78
fold change (FC) [34]: -0.92
fold change (FC) [35]: -0.1
fold change (FC) [36]: 1.87
Papp at 1 h [37]: 3.4 ×10⁻⁶ cm/s
half-life [38]: 1790 min
